Molecules are shown by their SMILES.

Common to all, as to type: biochemical
Test [1] concerns the target Pseudomonas aeruginosa BBE lipoxygenase LOX-His (His-tag HHHHHH fusion), gene SEQ ID NO.6 (Pseudomonas aeruginosa, UniProt Q9I4G8). As to the kind of experiment: Lipoxygenase kinetics with linoleic acid, LOX-His. The settings on record: pH 7.5, 25° C., Value ± SD. From the text:
(§1) FIG. 1. (A) Genetic constructs of the His-tag fusion proteins; (B) Genetic constructs of the S1v1 fusion proteins. S1v1, AEAEAHAHAEAEAHAH; linker, PTPPTTPTPPTTPTPT; His-tag, HHHHHH; Enzymes represented the encoding gene of three proteins (pgl, lox and gfp, respectively) used in this study.
(§2) The nucleotide sequence of PGL gene from Bacillus subtilis WSHB04-02 is shown as SEQ ID NO.4. The nucleotide sequence of LOX gene from Pseudomonas aeruginosa BBE is shown as SEQ ID NO.6. The nucleotide sequence of GFP gene from Aequorea victoria is shown as SEQ ID NO.8. E. coli JM109 was used as the host strain for cloning. E. coli BL21 (DE3) and E. coli Rosetta (DE3) were used as the expression hosts. The pET-22b (+) plasmid was used for expressing the recombinant proteins.
(§3) Linoleic acid was dispersed in 0.15 M K2HPO4—KH2PO4 buffer (pH 7.5). The substrate solution was freshly prepared daily and saturated with oxygen for 5 min before testing. Standard analytical mixture (3 mL) contains 0.3 mM linoleic acid and about 1.67 μg/mL enzyme. One unit of activity was defined as enzyme required to synthesis 1 μmol hydroperoxide per min at 25° C. Hydroperoxidaton was determined at 234 nm in a spectrophotometer (UV-2450; Shimadzu Co., Kyoto, Japan). The initial linear part of the wave was used to calculate enzyme activity.

The target of test [2] is Pseudomonas aeruginosa BBE lipoxygenase LOX-S1v1 (fused to self-assembling amphipathic peptide S1v1, […], SEQ ID NO.1), LOX gene SEQ ID NO.6 (Pseudomonas aeruginosa, UniProt Q9I4G8). As to the kind of experiment: Lipoxygenase kinetics with linoleic acid, LOX-S1v1.
Sequence of Pseudomonas aeruginosa BBE lipoxygenase LOX-S1v1 (fused to self-assembling amphipathic peptide S1v1, […], SEQ ID NO.1), LOX gene SEQ ID NO.6 (Q9I4G8 20-685, added parts left off): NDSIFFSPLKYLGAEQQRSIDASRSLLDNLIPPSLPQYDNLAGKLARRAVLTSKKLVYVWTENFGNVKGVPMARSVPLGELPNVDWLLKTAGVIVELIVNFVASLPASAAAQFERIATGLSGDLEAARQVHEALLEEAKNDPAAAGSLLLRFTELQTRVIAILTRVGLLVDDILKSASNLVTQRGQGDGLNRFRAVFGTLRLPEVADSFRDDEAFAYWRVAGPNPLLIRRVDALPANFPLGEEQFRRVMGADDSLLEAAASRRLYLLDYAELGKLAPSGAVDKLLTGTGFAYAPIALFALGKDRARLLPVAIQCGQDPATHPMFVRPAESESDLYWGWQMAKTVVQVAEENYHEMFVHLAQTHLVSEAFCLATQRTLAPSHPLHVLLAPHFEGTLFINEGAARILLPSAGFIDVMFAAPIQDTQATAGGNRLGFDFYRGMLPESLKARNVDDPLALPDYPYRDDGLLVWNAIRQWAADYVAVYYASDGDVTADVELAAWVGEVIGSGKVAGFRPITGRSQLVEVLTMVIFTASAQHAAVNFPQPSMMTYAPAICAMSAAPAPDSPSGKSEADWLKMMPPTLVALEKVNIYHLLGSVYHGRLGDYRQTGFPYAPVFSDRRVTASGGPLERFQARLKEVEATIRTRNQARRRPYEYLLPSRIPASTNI
Description: as §1, §2, §3
(2) The LOX gene (shown in SEQ ID NO. 6) was cloned into the recombinant vector pET-22b(+)/S1v1 at the restriction NcoI and XhoI sites to construct a recombinant plasmid pET-22b(+)/lox-S1v1.

For test [3], the target named is Pseudomonas aeruginosa BBE lipoxygenase (LOX, EC 1.13.11.12), wild-type, gene SEQ ID NO.6 (Pseudomonas aeruginosa, UniProt Q9I4G8). As to the kind of experiment: Lipoxygenase kinetics with linoleic acid, wild-type LOX. The following applies: pH 7.5, 25° C., Value ± SD.
Sequence of Pseudomonas aeruginosa BBE lipoxygenase (LOX, EC 1.13.11.12), wild-type, gene SEQ ID NO.6 (Q9I4G8 19-685, looked up, natural form): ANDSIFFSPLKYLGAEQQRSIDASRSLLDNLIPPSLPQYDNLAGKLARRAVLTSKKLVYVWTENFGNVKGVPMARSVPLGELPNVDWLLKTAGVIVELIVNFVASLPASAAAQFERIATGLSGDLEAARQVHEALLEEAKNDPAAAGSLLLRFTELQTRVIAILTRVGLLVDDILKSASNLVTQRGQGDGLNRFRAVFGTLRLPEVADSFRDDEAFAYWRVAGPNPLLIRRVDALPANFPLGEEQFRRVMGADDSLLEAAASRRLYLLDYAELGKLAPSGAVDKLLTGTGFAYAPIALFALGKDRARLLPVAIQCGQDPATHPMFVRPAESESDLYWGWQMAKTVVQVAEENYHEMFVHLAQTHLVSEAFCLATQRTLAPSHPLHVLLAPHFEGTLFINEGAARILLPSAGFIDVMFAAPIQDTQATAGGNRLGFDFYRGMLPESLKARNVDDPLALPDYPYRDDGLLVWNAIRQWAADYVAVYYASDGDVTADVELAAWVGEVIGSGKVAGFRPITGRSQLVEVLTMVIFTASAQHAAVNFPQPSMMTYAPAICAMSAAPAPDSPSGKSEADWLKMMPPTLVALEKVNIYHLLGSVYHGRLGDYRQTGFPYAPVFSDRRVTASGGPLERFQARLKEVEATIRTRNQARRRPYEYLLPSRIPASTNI
Description: as §2, §3

Where [4] appears, read: increase of LOX-S1v1 than that of the wild-type LOX.
Setting [5] is: linoleic acid, LOX-S1v1, pH 7.5, 25° C., Value ± SD.

Sequence of Pseudomonas aeruginosa BBE lipoxygenase LOX-His (His-tag HHHHHH fusion), gene SEQ ID NO.6 (Q9I4G8 19-685, looked up, natural form): as above

`CCCCC/C=C\C/C=C\CCCCCCCC(=O)O` [linoleic acid, Linoleic acid]: in test [1], the Km was found to be 55 ± 2 µM and the kcat came to 25.21 ± 1.02 S^−1. The “Km value (in words)” value in test [2] (fusion enzymes compared with wild-types, decrease in substrate affinity after S1v1 peptide fusion) was “higher Km value”. In addition, in test [2] (setting [4]), the “catalytic efficiencies (kcat/Km) increase” value was 1.3 fold and the kcat value increase is given as 2.4 fold. For the same compound, in test [2] (setting [5]), the Km stood at 83 ± 2 µM and the kcat is on record as 83.2 ± 3.25 S^−1. Besides, in test [3], the Km turned out to be 57 ± 1.2 µM and the kcat is 24.77 ± 0.97 S^−1.

Usually Km stands for the substrate concentration at which the rate is half of its maximum.

Source of the values: patent US10273266B2, “Multi-functional peptide benefiting expression, purification, stabilization and catalytic efficiency of recombinant proteins” (priority 2017, dated 2019).
